Key:
[1] = Stability in solution (HPLC analysis); assay type: physicochemical; details: for amount reduced after incubation: aqueous solution, 52° C., 4 h; for stability in solutions: water, MeOH, DMSO
Source text: The structures of 1 and 2 are similar to the structure of a known pyroglutamyl peptidase inhibitor pyrizinostatin. Pyrizinostatin has the same two-ring system (compound 3) but with a ketone side chain. Both 1 and 2 are optically active. It is possible that 1 and 2 are enantioselectively synthesized by the microorganism starting from 3 and 5. […] Upon storage, and during the isolation and purification process, decomposition predominates. […] The formation of 3 was evidenced by HPLC analysis.

PTP = experiment: Bioassay for PTP inhibitory activity; assay type: biochemical; details: for PTP inhibitory activity after prolonged storage of solution: TFA salt solution after prolonged storage; for PTP inhibitory activity of fresh solution: TFA salt, amount of 3 below 1 mole %; for PTP inhibitory activity in bioassay: isolated material, 1 and 2 contaminated with about 6-10% of 3; for effect on in vitro activity of the PTPs tested: 1 μM, receptor and non-receptor PTPs
Method: HTS for inhibitory activity towards PTPα was performed in 96 well plates (Nunclon). Dephosphorylation of the substrate (pNPP) was measured in 180 μL reactions/well in assay buffer containing 50 mM sodium acetate (pH 5.5), 0.5 mg/mL BSA and 0.5 mM dithiothreitol. The purified enzyme PTPα (0.3 μg/well) and extracts (5 μL in 50% methanol) were preincubated for 5–10 min at room temperature in a volume of 170 μl. Reactions were initiated by adding 10 μL of substrate in assay buffer to a final concentration of 2 mM. For each plate, 6 reference control wells containing PTPα were preincubated with 5 μL 50% methanol at the same time as the test samples. As a positive control for PTPα inhibition, 1 μM Na3VO4, a potent inhibitor of PTPs, was added to some wells. Blank wells contained 5 μL 50% methanol, 2 mM pNPP in assay buffer and no enzyme. For each set of experiments (from 2–5 plates), reference controls in a separate plate were read at different time points to check the linearity of the reaction. Reactions were stopped with 25 μL KH2PO4 after 45–60 mins incubation at room temperature. The plates were read immediately in a multilabel counter (Wallac 1420 Victor). The OD405 of the reference wells ranged between 0.7–1.2, which represents <10% conversion of the substrate and falls within the linear part of the reaction. Percentage inhibition was determined using the formula: % Inhibition=[{(OD ref−OD blank)−(OD test−OD blank)}/(OD ref−OD blank)]×100 Phosphatase Assay: […]

Solubility in solvents = assay type: physicochemical
εD1D2 = εD1D2 (Homo sapiens, UniProt P23469); experiment: Phosphatase assay (pNPP dephosphorylation), PTPε D1D2; details: for percentage activity of εD1D2 relative to control: 1 μM compound, phosphatase 1.0 nM, pNPP, average of three enzyme preparations ± S.D.
Method: (§1) All other PTPs described in the text were purchased from New England Biolabs. Dephosphorylation of pNPP was measured in 450 μL reactions containing 50 mM sodium acetate (pH 5.5, or pH 7 for CIP), 0.5 mg/mL BSA, 0.5 μM dithiothreitol, and 2 mM pNPP. Reactions with IPP also contained 2 mM Mn^2+. […] All reactions were carried out at 30° C. and terminated during the linear portion of the reaction.
(§2) [nM] refers to the concentration of phosphatase assayed. The numbers indicate percentage activities relative to respective control reactions without addition of 3, 4, or Na3VO4. The numbers represent the average of the activities measured with three separate enzyme preparations, each of which was assayed in duplicate±S.D.

Escherichia coli = experiment: Antimicrobial activity, Escherichia coli; assay type: cell-based; details: 50 μM or 100 μM
TCPTP = biological target: T1, TCPTP (Homo sapiens, UniProt P17706); experiment: Phosphatase assay (pNPP dephosphorylation), TCPTP; details: for percentage activity of TCPTP relative to control: 1 μM compound, phosphatase 1.0 nM, pNPP, average of three enzyme preparations ± S.D.
T1 sequence (P17706 1-317 limits assumed): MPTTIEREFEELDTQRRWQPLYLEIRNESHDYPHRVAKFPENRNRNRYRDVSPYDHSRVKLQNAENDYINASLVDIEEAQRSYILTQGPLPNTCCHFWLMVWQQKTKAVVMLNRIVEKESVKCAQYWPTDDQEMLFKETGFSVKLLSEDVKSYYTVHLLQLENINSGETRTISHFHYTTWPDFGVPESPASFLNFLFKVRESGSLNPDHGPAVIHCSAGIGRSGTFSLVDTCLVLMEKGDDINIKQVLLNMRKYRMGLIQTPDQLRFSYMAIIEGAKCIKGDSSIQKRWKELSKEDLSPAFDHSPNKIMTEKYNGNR
Method: (§3) Dephosphorylation of pNPP was measured in 450 μL reactions containing 50 mM sodium acetate (pH 5.5, or pH 7 for CIP), 0.5 mg/mL BSA, 0.5 μM dithiothreitol, and 2 mM pNPP. Reactions with IPP also contained 2 mM Mn^2+. […] All reactions were carried out at 30° C. and terminated during the linear portion of the reaction.
as §2

LAR-D1 = biological target: T2, LAR-D1 (Homo sapiens, UniProt P10586); experiment: Phosphatase assay (pNPP dephosphorylation), LAR-D1; details: for percentage activity of LAR-D1 relative to control: 1 μM compound, phosphatase 5.0 nM, pNPP, average of three enzyme preparations ± S.D.
T2 sequence (P10586 1352-1607 limits assumed): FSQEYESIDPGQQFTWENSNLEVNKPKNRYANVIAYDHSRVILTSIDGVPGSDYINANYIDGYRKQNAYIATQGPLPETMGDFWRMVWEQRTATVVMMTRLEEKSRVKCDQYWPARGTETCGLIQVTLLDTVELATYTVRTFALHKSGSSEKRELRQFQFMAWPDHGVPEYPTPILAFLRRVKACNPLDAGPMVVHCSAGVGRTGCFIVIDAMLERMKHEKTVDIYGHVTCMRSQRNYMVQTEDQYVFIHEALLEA
Method: as §3, §2

λPP = biological target: T3, λPP (Escherichia phage lambda, UniProt P03772); experiment: Phosphatase assay (pNPP dephosphorylation), λPP; details: for percentage activity of λPP relative to control: 1 μM compound, phosphatase 5.0 nM, pNPP, average of three enzyme preparations ± S.D.
T3 sequence (P03772 1-221): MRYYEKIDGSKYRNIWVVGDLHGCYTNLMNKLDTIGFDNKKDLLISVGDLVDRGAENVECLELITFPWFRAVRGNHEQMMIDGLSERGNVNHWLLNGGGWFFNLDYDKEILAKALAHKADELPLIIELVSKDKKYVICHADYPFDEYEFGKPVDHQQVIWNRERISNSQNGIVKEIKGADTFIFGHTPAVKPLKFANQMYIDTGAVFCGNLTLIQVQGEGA
Method: as §1, §2

Curvualaria sp. = experiment: Antimicrobial activity, Curvualaria sp.; assay type: cell-based; details: 50 μM or 100 μM
Pseudomonas aeruginosa = experiment: Antimicrobial activity, Pseudomonas aeruginosa; assay type: cell-based; details: 50 μM or 100 μM
αD1D2 = αD1D2 (Homo sapiens, UniProt P18433); experiment: Phosphatase assay (pNPP dephosphorylation), PTPα D1D2; details: for percentage activity of αD1D2 relative to control: 1 μM compound, phosphatase 5.0 nM, pNPP, average of three enzyme preparations ± S.D.
Method: as §1, §2

CIP = experiment: Phosphatase assay (pNPP dephosphorylation, pH 7), CIP; details: for percentage activity of CIP relative to control: 1 μM compound, phosphatase 0.5 nM, pNPP, pH 7, average of three enzyme preparations ± S.D.; for effect on pNPP phosphatase activity of CIP: neutral pH
Method: as §1, §2

Enterococcus faecalis = experiment: Antimicrobial activity, Enterococcus faecalis; assay type: cell-based; details: 50 μM or 100 μM
Staphylococcus aureus = experiment: Antimicrobial activity, Staphylococcus aureus; assay type: cell-based; details: 50 μM or 100 μM
Candida albicans = experiment: Antimicrobial activity, Candida albicans; assay type: cell-based; details: 50 μM or 100 μM
Mycobacterium smegmatis = experiment: Antimicrobial activity, Mycobacterium smegmatis; assay type: cell-based; details: 50 μM or 100 μM
CD45 = biological target: T4, CD45 (Homo sapiens, UniProt P08575); experiment: Phosphatase assay (pNPP dephosphorylation), CD45; details: for percentage activity of CD45 relative to control: 1 μM compound, phosphatase 1.0 nM, pNPP, average of three enzyme preparations ± S.D.
T4 sequence (P08575 599-1306 limits assumed): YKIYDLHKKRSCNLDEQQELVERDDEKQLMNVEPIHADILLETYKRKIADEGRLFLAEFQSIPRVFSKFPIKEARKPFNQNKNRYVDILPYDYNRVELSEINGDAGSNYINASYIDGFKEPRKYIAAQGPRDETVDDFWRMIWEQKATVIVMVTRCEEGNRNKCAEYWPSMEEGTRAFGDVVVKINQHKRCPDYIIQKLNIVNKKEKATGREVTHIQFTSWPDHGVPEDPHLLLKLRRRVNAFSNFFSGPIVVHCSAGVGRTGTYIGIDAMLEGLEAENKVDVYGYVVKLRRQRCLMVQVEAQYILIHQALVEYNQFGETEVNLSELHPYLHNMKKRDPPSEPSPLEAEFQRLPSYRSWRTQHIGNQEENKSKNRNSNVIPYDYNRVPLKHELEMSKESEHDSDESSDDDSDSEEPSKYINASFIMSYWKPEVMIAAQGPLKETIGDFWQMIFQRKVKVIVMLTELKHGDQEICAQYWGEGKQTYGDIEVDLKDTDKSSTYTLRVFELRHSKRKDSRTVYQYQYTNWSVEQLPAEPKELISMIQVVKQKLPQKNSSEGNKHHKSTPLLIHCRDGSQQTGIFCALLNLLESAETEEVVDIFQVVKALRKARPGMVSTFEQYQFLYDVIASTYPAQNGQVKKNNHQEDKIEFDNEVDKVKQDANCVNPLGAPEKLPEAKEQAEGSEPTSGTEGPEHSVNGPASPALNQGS
Method: as §1, §2

Proteus vulgaris = experiment: Antimicrobial activity, Proteus vulgaris; assay type: cell-based; details: 50 μM or 100 μM

Sequence of αD1D2 (P18433 175-802): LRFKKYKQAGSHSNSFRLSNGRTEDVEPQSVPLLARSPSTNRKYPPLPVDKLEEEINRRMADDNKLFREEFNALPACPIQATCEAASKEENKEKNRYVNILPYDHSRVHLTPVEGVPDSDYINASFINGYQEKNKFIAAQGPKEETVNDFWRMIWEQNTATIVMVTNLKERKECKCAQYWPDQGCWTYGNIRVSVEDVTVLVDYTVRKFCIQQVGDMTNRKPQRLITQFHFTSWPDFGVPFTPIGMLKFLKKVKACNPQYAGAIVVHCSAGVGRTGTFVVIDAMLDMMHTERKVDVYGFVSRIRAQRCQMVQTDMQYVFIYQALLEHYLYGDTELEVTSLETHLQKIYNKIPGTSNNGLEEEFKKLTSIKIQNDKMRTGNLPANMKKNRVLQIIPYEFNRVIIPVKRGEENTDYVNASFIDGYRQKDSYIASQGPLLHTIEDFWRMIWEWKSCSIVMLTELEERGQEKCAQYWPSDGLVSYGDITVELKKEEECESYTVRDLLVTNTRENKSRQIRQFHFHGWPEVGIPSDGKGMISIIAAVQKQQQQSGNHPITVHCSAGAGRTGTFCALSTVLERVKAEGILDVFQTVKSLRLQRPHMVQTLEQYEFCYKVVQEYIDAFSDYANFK
Sequence of εD1D2 (P23469 70-700 limits assumed): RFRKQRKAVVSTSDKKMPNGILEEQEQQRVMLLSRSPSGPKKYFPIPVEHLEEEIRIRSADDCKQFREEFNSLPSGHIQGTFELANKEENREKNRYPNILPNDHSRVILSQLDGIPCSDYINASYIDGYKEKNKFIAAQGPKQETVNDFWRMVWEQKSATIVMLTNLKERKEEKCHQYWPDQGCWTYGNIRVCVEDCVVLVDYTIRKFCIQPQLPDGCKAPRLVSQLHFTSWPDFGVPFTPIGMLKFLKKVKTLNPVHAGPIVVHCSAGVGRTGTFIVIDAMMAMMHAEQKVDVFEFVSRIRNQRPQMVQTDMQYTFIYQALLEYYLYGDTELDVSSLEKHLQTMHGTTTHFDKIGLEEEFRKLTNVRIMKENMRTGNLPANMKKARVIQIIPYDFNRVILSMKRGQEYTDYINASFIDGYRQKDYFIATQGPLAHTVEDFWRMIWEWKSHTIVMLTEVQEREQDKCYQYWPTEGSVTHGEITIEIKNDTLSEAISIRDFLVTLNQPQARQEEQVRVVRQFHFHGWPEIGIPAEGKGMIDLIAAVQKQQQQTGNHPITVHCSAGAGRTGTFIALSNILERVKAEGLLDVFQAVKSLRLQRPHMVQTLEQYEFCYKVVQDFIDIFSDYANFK

Structure (SMILES) | amount reduced after incubation [1] [%] | stability in solutions [1] | PTP inhibitory activity after prolonged storage of solution (PTP) | PTP inhibitory activity of fresh solution (PTP) | PTP inhibitory activity in bioassay (PTP) | solubility in DMSO, methanol and water (Solubility in solvents) | solubility in dichloromethane, chloroform and hexanes (Solubility in solvents) | percentage activity of εD1D2 relative to control (εD1D2) [%] | percentage activity of TCPTP relative to control (TCPTP) [%] | percentage activity of LAR-D1 relative to control (LAR-D1) [%] | effect on in vitro activity of the PTPs tested (PTP) | percentage activity of λPP relative to control (λPP) [%] | percentage activity of αD1D2 relative to control (αD1D2) [%] | percentage activity of CIP relative to control (CIP) [%] | effect on pNPP phosphatase activity of CIP (CIP) | percentage activity of CD45 relative to control (CD45) [%] | further results
CN1N=C2N(C)C(=O)N(C)C(=O)C2(C2NC(N)=NC2=O)NC1=O (single isomer, unassigned) [Compound 1, 4a-(2-amino-5-oxo-4,5-dihydro-3H-imidazol-4-yl)-2,4,4a,8-tetrahydro-2,6,8-trimethyl-pyrimido[5,4-e]-1,2,4-triazine-3,5,7(6H)-trione] | 62 | unstable | became active | inactive | much weaker inhibitors | soluble | insoluble |  |  |  |  |  |  |  |  |  | 
CN1N=C2N(C)C(=O)N(C)C(=O)C2(C2NC(N)=NC2=O)NC1=O (single isomer, unassigned) [Compound 2, 4a-(2-amino-5-oxo-4,5-dihydro-3H-imidazol-4-yl)-2,4,4a,8-tetrahydro-2,6,8-trimethyl-pyrimido[5,4-e]-1,2,4-triazine-3,5,7(6H)-trione] | 85 | unstable | became active | inactive | much weaker inhibitors | soluble | insoluble |  |  |  |  |  |  |  |  |  | 
Cn1nc2c(nc1=O)c(=O)n(C)c(=O)n2C [Compound 3, 2,8-dihydro-2,6,8-trimethyl-pyrimido[5,4-e]-1,2,4-triazine-3,5,7(6H)-trione] |  |  |  |  | potent PTP inhibitor |  |  | 17 ± 4.0 | 34 ± 1.0 | 17 ± 2.0 | inhibited all the PTPs tested | 48 ± 2.0 | 17 ± 1.1 | 100 ± 1.0 | neither compound had any detectable effect | 15 ± 2.5 | inhibition at 1 µM (εD1D2; read-out: inhibition of εD1D2): 83 to 85%; antimicrobial activity against Escherichia coli (Escherichia coli): no antimicrobial activity; inhibition at 1 µM (TCPTP; read-out: inhibition of TC-PTP): ~65%; inhibition at 1 µM (LAR-D1; read-out: inhibition of LAR-D1): 83 to 85%; inhibition at 1 µM (λPP; read-out: inhibition of λPP activity): ~50%; antimicrobial activity against Curvualaria sp. (Curvualaria sp.): no antimicrobial activity; antimicrobial activity against Pseudomonas aeruginosa (Pseudomonas aeruginosa): no antimicrobial activity; PTP inhibition of αD1D2 at neutral pH (αD1D2; neutral pH, results not shown): continues to behave as a PTP inhibitor; inhibition at 1 µM (αD1D2; read-out: inhibition of αD1D2): 83 to 85%; antimicrobial activity against Enterococcus faecalis (Enterococcus faecalis): no antimicrobial activity; antimicrobial activity against Staphylococcus aureus (Staphylococcus aureus): no antimicrobial activity; antimicrobial activity against Candida albicans (Candida albicans): no antimicrobial activity; antimicrobial activity against Mycobacterium smegmatis (Mycobacterium smegmatis): no antimicrobial activity; inhibition at 1 µM (CD45; read-out: inhibition of CD45): 83 to 85%; antimicrobial activity against Proteus vulgaris (Proteus vulgaris): no antimicrobial activity
Cn1nc2c(nc1=O)n(C)c(=O)n2C [Compound 4, 2,5,7-trimethyl-2,7-dihydro-5H-imidazo[4,5-e]-1,2,4-triazine-3,6-dione] |  |  |  |  |  |  |  | 99 ± 1.0 | 99 ± 2.0 | 97 ± 1.5 | negligible effects | 100 ± 6.0 | 98 ± 0.5 | 99 ± 4.0 | neither compound had any detectable effect | 96 ± 1.0 | effect on λPP activity (λPP; 1 μM): unaffected
[Na+].[Na+].[Na+].[O]=[V]([O-])([O-])[O-] [Na3VO4, sodium orthovanadate, reference compound] |  |  |  |  |  |  |  | 18 ± 2.0 | 31 ± 5.0 | 26 ± 1.0 |  | 49 ± 3.0 | 24 ± 1.5 | 98 ± 3.0 | lack of effect | 14 ± 0.5 | 
